Reference: PubChem BioAssay AID1963967 (Molecular Pharmacology Branch, DTP, NCI, 2024)

System: 855422-203-R-J1-PDC spheroids with HUVEC/MSC, viability
Assay: Anticancer human tumor 855422-203-R-J1-PDC patient-derived bladder carcinoma cell line growth inhibition [PI3K]
Conditions: for viability, T/C: stronger effect = lower value
Source text: Combinatorial screen of targeted agents with the PI3K inhibitors inavolisib, alpelisib, duvelisib, and copanlisib in multi-cell type tumor spheroids
A high-throughput screen of multi-cell type tumor spheroids was designed to identify active combinations of targeted small molecules and PI3K pathway inhibitors. Complex spheroids include a stromal component modeled by human endothelial cells (HUVEC) and fibroblasts modeled by human mesenchymal stem cells (MSCs). The concentration ranges selected for each drug and investigational agent were based upon clinically achievable concentrations if the clinical Cmax of the agent was known.
Compounds. The drugs and investigational agents: inavolisib (NSC800729), alpelisib (NSC765974), duvelisib (NSC772469), copanlisib (NSC816437), ipatasertib (NSC767898), afuresertib (NSC778305), talazoparib (NSC767125), sapanisertib (NSC764658), selumetinib (NSC741078), tovorafenib (DAY101, NSC766906), vemurafenib (NSC761431), ravoxertinib (NSC781343), sotorasib (NSC818433), MRTX1133 (NSC 836407), abemaciclib (NSC 768073), palbociclib (NSC758247), venetoclax (NSC 766270), SY5609 (NSC837396), enzalutamide (NSC755605), and darolutamide (NSC825331), were obtained from the National Cancer Institute (NCI) Developmental Therapeutics Program Chemical Repository. The FDA-approved anticancer drug set is available from the NCI Developmental Therapeutics Program. […] The stock solutions were prepared in dimethyl sulfoxide (DMSO, Sigma-Aldrich, St. Louis, MO, cat. D2650) at 800-fold the tested concentration and stored at -70 degrees C prior to their use. All drugs and investigational agents were tested over a range starting from a high concentration at or near the clinical Cmax and decreasing in half-log increments. If the clinical Cmax for an agent had not been determined, the highest concentration tested was 10 microM.
Cell Culture. All cells were maintained in an incubator at 37 degrees C and 5% CO2 with 95% humidity. The PDC lines were cultured according to standard operating procedures established by the NCI PDMR (https://pdmr.cancer.gov/sops/default.htm). All PDCs were thawed and cultured in Matrigel-coated flasks prepared with a working solution of 1X Ham's F-12 nutrient mix, without supplementation (Invitrogen, Waltham, MA, cat. 11765054), 100 U/mL penicillin-streptomycin (Invitrogen, cat. 15140122), and 2.5% Matrigel (Corning Inc., Corning, NY, cat. 354248) for the first three passages. The 354836-022-R-J1-PDC, 475296-252-R-J1-PDC, and 997726-040-R-J2-PDC lines were cultured in 6A media, which includes advanced DMEM/F-12 (Thermo Fisher Scientific, cat. 12634028), 10 mM HEPES (Thermo Fisher Scientific, cat. 15630080), 1X GlutaMAX supplement (Thermo Fisher Scientific, cat. 35050061), 0.1 mg/mL primocin (InvivoGen, San Diego, CA, cat. ant-pm-2), 10% defined fetal bovine serum, heat inactivated (HyClone Laboratories Inc., Logan, UT, cat. SH30070.03HI), 50% L-WRN conditioned media (ATCC, cat. CRL-3276), 1.25 mM N-Acetyl-L-cysteine (Sigma-Aldrich, cat. A9165), 10 mM nicotinamide (Sigma-Aldrich, cat. N0636), 1X B-27 supplement (Thermo Fisher Scientific, cat. 17504044), 1X N-2 supplement (Thermo Fisher Scientific, cat. 17502048), and 10 microM Y-27632 dihydrochloride (Tocris Bioscience, Bristol, United Kingdom, cat. 1254). The 624824-186-R-J2-PDC line was cultured in 6C/Colon 1B media, which includes all 6A media components plus 50 ng/mL human EGF recombinant protein (Thermo Fisher Scientific, cat. PHG0311). […]
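Also: agents incubated with spheroids for one week before read-out.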
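For viability, T/C in this document: 100% = DMSO vehicle-treated control wells.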

Q: For `CCN1CCN(Cc2ccc(Nc3ncc(F)c(-c4cc(F)c5nc(C)n(C(C)C)c5c4)n3)nc2)CC1` + CC(Nc1ncnc2nc[nH]c12)c1cc2cccc(Cl)c2c(=O)n1-c1ccccc1, which IC50 (curve of first compound, second compound 0.0316 µM) is on record?
A: > 1 µM

Q: What about the IC50 (curve of first compound, second compound 0.1 µM) of the same molecule?
A: > 1 µM

Q: And the IC50 (curve of first compound, second compound 0.316 µM)?
A: > 1 µM

Q: And the IC50 (curve of first compound, second compound 1 µM)?
A: 0.885 µM

Q: What about the IC50 (curve of first compound, second compound 3.16 µM) of the same molecule?
A: 0.497 µM

Q: And the IC50 (curve of first compound, second compound 10 µM)?
A: 0.063 µM

Q: What about the viability, T/C (second compound 0.0316 µM, first compound 0.00316 µM) of the same molecule?
A: 113%

Q: What about the viability, T/C (second compound 0.0316 µM, first compound 0.01 µM) of the same molecule?
A: 93.7%

Q: And the viability, T/C (second compound 0.0316 µM, first compound 0.0316 µM)?
A: 108%

Q: What about the viability, T/C (second compound 0.0316 µM, first compound 0.1 µM) of the same molecule?
A: 88.6%

Q: And the viability, T/C (second compound 0.0316 µM, first compound 0.316 µM)?
A: 76.5%

Q: And the viability, T/C (second compound 0.0316 µM, first compound 1 µM)?
A: 62.2%

Q: And the viability, T/C (second compound 0.1 µM, first compound 0.00316 µM)?
A: 108%

Q: And the viability, T/C (second compound 0.1 µM, first compound 0.01 µM)?
A: 97.8%

Q: What about the viability, T/C (second compound 0.1 µM, first compound 0.0316 µM) of the same molecule?
A: 108%

Q: What about the viability, T/C (second compound 0.1 µM, first compound 0.1 µM) of the same molecule?
A: 86.5%

Q: And the viability, T/C (second compound 0.1 µM, first compound 0.316 µM)?
A: 83.1%

Q: And the viability, T/C (second compound 0.1 µM, first compound 1 µM)?
A: 62%

Q: What about the viability, T/C (second compound 0.316 µM, first compound 0.00316 µM) of the same molecule?
A: 95.2%

Q: What about the viability, T/C (second compound 0.316 µM, first compound 0.01 µM) of the same molecule?
A: 112%

Q: And the viability, T/C (second compound 0.316 µM, first compound 0.0316 µM)?
A: 109%

Q: What about the viability, T/C (second compound 0.316 µM, first compound 0.1 µM) of the same molecule?
A: 94.4%

Q: What about the viability, T/C (second compound 0.316 µM, first compound 0.316 µM) of the same molecule?
A: 68.2%

Q: What about the viability, T/C (second compound 0.316 µM, first compound 1 µM) of the same molecule?
A: 53.7%

Q: What about the viability, T/C (second compound 1 µM, first compound 0.00316 µM) of the same molecule?
A: 97.5%

Q: And the viability, T/C (second compound 1 µM, first compound 0.01 µM)?
A: 104%

Q: And the viability, T/C (second compound 1 µM, first compound 0.0316 µM)?
A: 105%

Q: And the viability, T/C (second compound 1 µM, first compound 0.1 µM)?
A: 83.1%

Q: What about the viability, T/C (second compound 1 µM, first compound 0.316 µM) of the same molecule?
A: 69%

Q: And the viability, T/C (second compound 1 µM, first compound 1 µM)?
A: 47.3%

Q: And the viability, T/C (second compound 3.16 µM, first compound 0.00316 µM)?
A: 98.2%

Q: And the viability, T/C (second compound 3.16 µM, first compound 0.01 µM)?
A: 96.6%

Q: And the viability, T/C (second compound 3.16 µM, first compound 0.0316 µM)?
A: 89.8%

Q: What about the viability, T/C (second compound 3.16 µM, first compound 0.1 µM) of the same molecule?
A: 75.7%

Q: And the viability, T/C (second compound 3.16 µM, first compound 0.316 µM)?
A: 51.5%

Q: What about the viability, T/C (second compound 3.16 µM, first compound 1 µM) of the same molecule?
A: 46.2%

Q: And the viability, T/C (second compound 10 µM, first compound 0.00316 µM)?
A: 81.9%

Q: And the viability, T/C (second compound 10 µM, first compound 0.01 µM)?
A: 83.2%

Q: What about the viability, T/C (second compound 10 µM, first compound 0.0316 µM) of the same molecule?
A: 55.2%

Q: And the viability, T/C (second compound 10 µM, first compound 0.1 µM)?
A: 44.9%

Q: What about the viability, T/C (second compound 10 µM, first compound 0.316 µM) of the same molecule?
A: 34.9%

Q: What about the viability, T/C (second compound 10 µM, first compound 1 µM) of the same molecule?
A: 25.9%

Q: `Cc1nc(NC(=O)N2CCCC2C(N)=O)sc1-c1ccnc(C(C)(C)C(F)(F)F)c1` (stereo unspecified) was tested. Which viability, T/C (compound 0.0316 µM) did it give?
A: 107% [middle of 8 runs]

Q: And the viability, T/C (compound 1 µM)?
A: 75.8% [middle of 8 runs]

Q: And the viability, T/C (compound 3.16 µM)?
A: 43% [middle of 8 runs]

Q: And the viability, T/C (compound 10 µM)?
A: 22.2% [middle of 8 runs]

Q: What about the IC50 (compound alone, run of 05/08/2023) of the same molecule?
A: 2.53 µM [middle of 8 runs]

Q: For `CNC(=O)c1ccc(N2C(=S)N(c3ccc(C#N)c(C(F)(F)F)c3)C(=O)C2(C)C)cc1F`, which viability, T/C (compound 0.0316 µM) is on record?
A: 110% [middle of 4 runs]

Q: And the viability, T/C (compound 0.1 µM)?
A: 99.4% [middle of 4 runs]

Q: What about the viability, T/C (compound 0.316 µM) of the same molecule?
A: 106% [middle of 4 runs]

Q: And the viability, T/C (compound 1 µM)?
A: 84.8% [middle of 4 runs]

Q: What about the viability, T/C (compound 3.16 µM) of the same molecule?
A: 79.4% [middle of 4 runs]

Q: What about the viability, T/C (compound 10 µM) of the same molecule?
A: 66.9% [middle of 4 runs]

Q: And the IC50 (curve of compound)?
A: > 10 µM

Q: Which viability, T/C (compound 0.0316 µM) does the source give for `Cn1ncc(Cl)c1-c1cc(C(=O)NC(CN)Cc2cccc(F)c2)sc1Cl` (stereo unspecified) here?
A: 93.2% [middle of 4 runs]

Q: What about the viability, T/C (compound 0.1 µM) of the same molecule?
A: 75.2% [middle of 4 runs]

Q: And the viability, T/C (compound 0.316 µM)?
A: 69.4% [middle of 4 runs]

Q: And the viability, T/C (compound 1 µM)?
A: 49.7% [middle of 4 runs]

Q: What about the viability, T/C (compound 3.16 µM) of the same molecule?
A: 28.2% [middle of 4 runs]

Q: What about the viability, T/C (compound 10 µM) of the same molecule?
A: 8.18% [middle of 4 runs]

Q: What about the IC50 (curve of compound) of the same molecule?
A: 936 nM [middle of 4 runs]
